Reference: patent publication US10961234B2, “Oxazole derivatives for use in the treatment of cancer” (LIFEARC, priority 2016, dated 2021)

Legend:
WT full length PAICS = molecular target: T1, WT full length PAICS (Homo sapiens, UniProt P22234); experiment: Biochemical assay to measure PAICS activity (Transcreener ADP2 FI, SAICAR synthetase reaction); settings: PAICS 2.5 nM, 30 mins pre-incubation, ADP detection by fluorescence intensity
T1 construct: 5 μl WT full length PAICS (final assay concentration, fac, 2.5 nM) in basic buffer
T1 sequence (P22234 1-425): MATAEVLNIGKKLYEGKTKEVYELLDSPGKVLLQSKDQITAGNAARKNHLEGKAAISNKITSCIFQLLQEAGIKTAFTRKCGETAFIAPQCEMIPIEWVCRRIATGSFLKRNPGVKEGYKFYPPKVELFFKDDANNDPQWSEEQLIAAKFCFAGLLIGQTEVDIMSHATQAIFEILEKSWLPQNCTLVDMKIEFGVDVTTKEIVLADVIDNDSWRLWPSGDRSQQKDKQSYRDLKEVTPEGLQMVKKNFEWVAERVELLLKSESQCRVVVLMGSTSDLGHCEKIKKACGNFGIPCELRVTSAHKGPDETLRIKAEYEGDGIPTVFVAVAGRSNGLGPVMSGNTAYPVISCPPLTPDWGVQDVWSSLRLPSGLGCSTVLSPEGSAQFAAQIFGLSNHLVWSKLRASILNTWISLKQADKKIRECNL
Text: The biochemical assay was used to measure PAICS SAICAR synthetase-mediated conversion of CAIR, aspartic acid and ATP to SAICAR, ADP and inorganic phosphate (PI), post-AIR/CAIR equilibration (see FIG. 3). This was achieved by detecting the ADP generated during the reaction, using Bellbrook Lab's Transcreener ADP^2 FI assay. An increase in the fluorescence intensity is directly proportional to the amount of PAICS activity.
The Transcreener ADP^2 FI assay is a homogeneous competitive displacement fluorescence intensity assay which uses direct immunodetection of ADP. Displacement of the tracer by ADP causes an increase in the fluorescence at excitation 590 nm and emission 617 nm (FIG. 3).
5 μl WT full length PAICS (final assay concentration, fac, 2.5 nM) in basic buffer, added to black, non-binding, 384-well plates (Corning #3575), columns 1 to 22.5 μl basic buffer was added to columns 23+24 (negative control). PAICS stock at 31.9 μM from the PI's lab (Steve Firestine). Basic buffer contained 50 mM Tris-HCl pH8 and 0.5 mM EDTA, fac.
1 μl compound in 100% DMSO added per well, or 1 μl 100% DMSO to positive controls (columns 1+2) and negative controls (columns 23+24). Final assay top concentration of compound either 1 mM or 30 μM, serially diluted with half-log dilutions across the plate in duplicate (one 10-point concentration response curve across wells 3 to 12, another across 13 to 22). Compounds pre-incubated with PAICS enzyme for 30 mins at RT.
2 μl CAIR added (fac 10 μM) in basic buffer plus 25 mM MgCl2 and 50 mM KHCO3 fac to all wells. CAIR stock 50 mM from Steve Firestine's lab. 1 hr RT incubation for AIR-CAIR equilibration. NB: ˜50% CAIR is decarboxylated during equilibration therefore 5 μM remains for the synthetase reaction.
2 μl ATP/aspartic acid added (fac 30 μM/180 μM) in reaction buffer to all wells. 30 mins RT incubation for appropriate level of ATP turnover. Reaction buffer contained basic buffer plus 10 mM DTT, 0.01% BSA and 0.01% Brij 35, fac.
10 μl ADP detection reagent added to all wells (as per instructions, Transcreener ADP^2 FI kit, BellBrook Labs #3013-10K). Incubation for 1 h at RT to allow antibody equilibration. Fluorescence intensity determined using a Tecan Safire2 (excitation at 590 nm, emission at 617 nm).

[1] = test system: LM2 and MDA-MB-231 breast cancer cell lines; experiment: PAICS 2D cell proliferation assay; type: cell-based; settings: Homo sapiens; 72 hours incubation; cell line (LM2 or MDA-MB-231) not given
Protocol: Frozen cryovial stocks of LM2 and MDA-MB-231 breast cancer cell lines were thawed and cultured in 4.5 g/L glucose DMEM (31966-047, Invitrogen) supplemented with 10% Fetal Bovine Serum (10500-064, Invitrogen) until confluent in a T175 flask. Cells were incubated at 37° C. with 5% CO2 in a humidified incubator.
Cells were collected from T175 flasks by washing with PBS (10010-056, Invitrogen) and dissociated using Accutase (A6964, Sigma Aldrich). This was followed by centrifuging (1200 rpm, 5 min) and resuspending the cells in 10 ml of media containing 1% penicillin/streptomycin (15140-122, Invitrogen). Cells were counted by trypan blue exclusion method using an automated cell counter (Cellometer) and diluted to a concentration of 40,000/ml. 1000 cells were then seeded into 384-well white-walled plates (Corning, 3707) in a volume of 25 μl. Plates were incubated overnight at 37° C. with 5% CO2.
After 24 hours, PAICS compounds were added onto the assay plates using an HP D300 Digital Dispenser (Hewlett Packard). 10 mM stocks were used and dispensed as a 10 point concentration response curve (CRC) ½ log dilution series with a final top concentration of 100 μM. Controls were added onto each plate: positive controls included Staurosporine CRC (100 μM stock dispensed as a 10 point CRC ½ log dilution series with a final top concentration of 1 μM) and PAICS compound MRT00211919 (10 mM stock dispensed as a 10 point CRC ½ log dilution series with a final top concentration of 100 μM); a high control of Staurosporine (0.1 μM (LM2), 0.316 μM (MDA-MB-231) FAC) and a low control of media containing 1% DMSO. A final concentration of 1% DMSO was then added across the plates for normalisation. Following compound addition, assay plates were incubated for 72 hours at 37° C. with 5% CO2.
After 72 h incubation, dead and viable cells were measured in each assay plate. Cytotoxicity was assessed through fluorescent DNA staining using the CellTox™ Green Cytotoxicity Assay kit (G8743, Promega) following the manufacturer's multiplexing protocol. Impaired cell membrane integrity results in the access of dye to stain DNA allowing quantification of dead cells. Cell viability was determined following ATP quantification using the CellTiter-Glo® Luminescent Cell Viability Assay kit (G7572, Promega) following the manufacturer's protocol. ATP released from lysed cells allowed for the generation of a signal proportional to the number of cells present in the well. All endpoint reads were performed using the PheraSTAR Plus (BMG Labtech). Data is expressed as % viable cells and % dead cells against controls (mean±SEM of duplicate curves).

Q: Which IC50 (WT full length PAICS) does the source give for `CNC1CCC(n2cc(-c3ccc(Cl)c(NC(=O)c4coc(N)n4)c3)cn2)CC1` (mixture of isomers) [Example 80, 2-Amino-N-(2-chloro-5-{1-[4-(methylamino)cyclohexyl]-1H-pyrazol-4-yl}phenyl)-1,3-oxazole-4-carboxamide] here?
A: < 10 nM

Q: And the EC50 [1]?
A: < 100 nM

Q: How did the IC50 (WT full length PAICS) turn out when `Nc1nc(C(=O)Nc2cc(-c3ccc(CN4CCNCC4)cc3)ccc2Cl)co1` [Example 38, 2-Amino-N-[4-chloro-4′-(piperazin-1-ylmethyl)biphenyl-3-yl]-1,3-oxazole-4-carboxamide] was run?
A: 10 to 25 nM

Q: What about the EC50 [1] of the same compound?
A: 250 to 500 nM

Q: For `Nc1nc(C(=O)Nc2cc(-c3ccc(N4CCNCC4)cc3)ccc2Cl)co1` [Example 39, 2-Amino-N-[4-chloro-4′-(piperazin-1-yl)biphenyl-3-yl]-1,3-oxazole-4-carboxamide], which IC50 (WT full length PAICS) is on record?
A: > 100 nM

Q: And the EC50 [1]?
A: 250 to 500 nM

Q: For `Nc1nc(C(=O)Nc2cc(-c3cnn(C4CCNCC4)c3)ccc2Cl)co1` [Example 40], which IC50 (WT full length PAICS) is on record?
A: 25 to 100 nM

Q: What about the EC50 [1] of the same compound?
A: 250 to 500 nM

Q: Which IC50 (WT full length PAICS) does the source give for `Nc1nc(C(=O)Nc2cc(-c3cnn(C4CCNC4)c3)ccc2Cl)co1` (centres unmarked) [Example 41, 2-Amino-N-{2-chloro-5-[1-(pyrrolidin-3-yl)-1H-pyrazol-4-yl]phenyl}-1,3-oxazole-4-carboxamide] here?
A: 25 to 100 nM

Q: And the EC50 [1]?
A: 100 to 250 nM

Q: Which results are given for `Nc1nc(C(=O)Nc2cc(-c3cnn(C4CCCNC4)c3)ccc2Cl)co1` (centres unmarked) [Example 42, 2-Amino-N-{2-chloro-5-[1-(piperidin-3-yl)-1H-pyrazol-4-yl]phenyl}-1,3-oxazole-4-carboxamide]?
A: IC50 (WT full length PAICS): > 100 nM; EC50 [1]: 100 to 250 nM

Q: For `CN(C)CCCn1cc(-c2ccc(Cl)c(NC(=O)c3coc(N)n3)c2)cn1` [Example 43, 2-Amino-N-(2-chloro-5-{1-[3-(dimethylamino)propyl]-1H-pyrazol-4-yl}phenyl)-1,3-oxazole-4-carboxamide], which IC50 (WT full length PAICS) is on record?
A: 25 to 100 nM

Q: What about the EC50 [1] of the same compound?
A: 100 to 250 nM

Q: With `CN1CCC(n2cc(-c3ccc(Cl)c(NC(=O)c4coc(N)n4)c3)cn2)CC1` [Example 44, 2-Amino-N-{2-chloro-5-[1-(1-methylpiperidin-4-yl)-1H-pyrazol-4-yl]phenyl}-1,3-oxazole-4-carboxamide] as the compound, how does the IC50 (WT full length PAICS) read?
A: > 100 nM

Q: And the EC50 [1]?
A: 100 to 250 nM

Q: With `CN1CC(n2cc(-c3ccc(Cl)c(NC(=O)c4coc(N)n4)c3)cn2)C1` [Example 45, 2-Amino-N-{2-chloro-5-[1-(1-methylazetidin-3-yl)-1H-pyrazol-4-yl]phenyl}-1,3-oxazole-4-carboxamide] as the compound, how does the IC50 (WT full length PAICS) read?
A: > 100 nM

Q: What about the EC50 [1] of the same compound?
A: 100 to 250 nM

Q: Which results are given for `Nc1nc(C(=O)Nc2cc(-c3cnn(CCCNC4CC4)c3)ccc2Cl)co1` [Example 48, 2-Amino-N-(2-chloro-5-(1-(3-(cyclopropylamino)propyl)-1H-pyrazol-4-yl)phenyl)oxazole-4-carboxamide]?
A: IC50 (WT full length PAICS): 10 to 25 nM; EC50 [1]: 100 to 250 nM

Q: Which IC50 (WT full length PAICS) does the source give for `CNCCCn1cc(-c2ccc(Cl)c(NC(=O)c3coc(N)n3)c2)cn1` [Example 49, 2-Amino-N-(2-chloro-5-(1-(3-(methylamino)propyl)-1H-pyrazol-4-yl)phenyl)oxazole-4-carboxamide] here?
A: < 10 nM

Q: What about the EC50 [1] of the same compound?
A: < 100 nM

Q: Which results are given for `CNCCn1cc(-c2ccc(Cl)c(NC(=O)c3coc(N)n3)c2)cn1` [Example 50, 2-Amino-N-(2-chloro-5-(1-(2-(methylamino)ethyl)-1H-pyrazol-4-yl)phenyl)oxazole-4-carboxamide]?
A: IC50 (WT full length PAICS): 10 to 25 nM; EC50 [1]: 100 to 250 nM

Q: Which results are given for `Nc1nc(C(=O)Nc2cc(-c3cnn(CCCN4CCNCC4)c3)ccc2Cl)co1` [Example 51, 2-Amino-N-(2-chloro-5-(1-(3-(piperazin-1-yl)propyl)-1H-pyrazol-4-yl)phenyl)oxazole-4-carboxamide]?
A: IC50 (WT full length PAICS): < 10 nM; EC50 [1]: 100 to 250 nM

Q: For `CN1CCN(CCCn2cc(-c3ccc(Cl)c(NC(=O)c4coc(N)n4)c3)cn2)CC1` [Example 52, 2-Amino-N-(2-chloro-5-(1-(3-(4-methylpiperazin-1-yl)propyl)-1H-pyrazol-4-yl)phenyl)oxazole-4-carboxamide], which IC50 (WT full length PAICS) is on record?
A: 10 to 25 nM

Q: What about the EC50 [1] of the same compound?
A: 100 to 250 nM

Q: For `CN(C)CCCc1ncc(-c2ccc(Cl)c(NC(=O)c3coc(N)n3)c2)s1` [Example 85, 2-Amino-N-(2-chloro-5-{2-[3-(dimethylamino)propyl]-1,3-thiazol-5-yl}phenyl)-1,3-oxazole-4-carboxamide], which EC50 [1] is on record?
A: < 100 nM

Q: `CNC1CCCN(Cc2csc(-c3ccc(Cl)c(NC(=O)c4coc(N)n4)c3)n2)C1` (centres unmarked) [Example 96, 2-Amino-N-[2-chloro-5-(4-{[3-(methylamino)piperidin-1-yl]methyl}-1,3-thiazol-2-yl)phenyl]-1,3-oxazole-4-carboxamide] was tested. Which EC50 [1] did it give?
A: < 100 nM

Q: Which EC50 [1] does the source give for `CN(C)C1CCN(Cc2csc(-c3ccc(Cl)c(NC(=O)c4coc(N)n4)c3)n2)CC1` [Example 97, 2-Amino-N-[2-chloro-5-(4-{[4-(dimethylamino)piperidin-1-yl]methyl}-1,3-thiazol-2-yl)phenyl]-1,3-oxazole-4-carboxamide] here?
A: 100 to 250 nM

Q: Which EC50 [1] does the source give for `CCN(CC)CCCOc1ncc(-c2ccc(Cl)c(NC(=O)c3coc(N)n3)c2)s1` [Example 98, 2-Amino-N-(2-chloro-5-{2-[3-(diethylamino)propoxy]-1,3-thiazol-5-yl}phenyl)-1,3-oxazole-4-carboxamide] here?
A: < 100 nM

Q: How did the EC50 [1] turn out when `CSc1ccc(-c2cnc(OCCCN(C)C)s2)cc1NC(=O)c1coc(N)n1` [Example 99, 2-Amino-N-[5-{2-[3-(dimethylamino)propoxy]-1,3-thiazol-5-yl}-2-(methylsulfanyl)phenyl]-1,3-oxazole-4-carboxamide] was run?
A: 100 to 250 nM

Q: How did the EC50 [1] turn out when `CSc1ccc(-c2nc(CN3CCNCC3)cs2)cc1NC(=O)c1coc(N)n1` [Example 100, 2-Amino-N-{2-(methylsulfanyl)-5-[4-(piperazin-1-ylmethyl)-1,3-thiazol-2-yl]phenyl}-1,3-oxazole-4-carboxamide] was run?
A: < 100 nM

Q: `CN1CCN(c2ncc(-c3ccc(Cl)c(NC(=O)c4coc(N)n4)c3)s2)CC1` [Example 101, 2-Amino-N-{2-chloro-5-[2-(4-methylpiperazin-1-yl)-1,3-thiazol-5-yl]phenyl}-1,3-oxazole-4-carboxamide] was tested. Which EC50 [1] did it give?
A: 100 to 250 nM
